What all share (assay type): cell-based
The subject of one assay is A2780 ovarian cells. Description: A2780 Ovarian Cell Proliferation Assay in Lipid Reduced Medium, with and without Palmitate (MTT). Conditions: Homo sapiens, 10% lipid-reduced serum, 96 h. On the procedure: The biological assays described below correspond to comparative assays for ovarian cell proliferation.
2500 cells were seeded in a 96-well clear well plate in 200 μL RPM11640 with 10% Fetal Calf Serum (Hyclone), and incubated at 37° C., 5% CO2, Blanks were wells without cells. The next day the culture medium was aspirated and replaced by 160 μL culture medium with 10% Lipid-Reduced Serum (LRS, Hyclone). […] After 96 h incubation, an MTT assay was performed.
2500 cells were seeded in a 96-well clear well plate in 200 μL RPM11640 with 10% Fetal Calf Serum (Hyclone), and incubated at 37° C., 5% CO2. Blanks were wells without cells. The next day the culture medium was aspirated and replaced by 160 μL culture medium with 10% Lipid-Reduced Serum (LRS, Hyclone). 20 μL test compound (at concentrations of 30 μM, 10 μM, 3 μM, 1 μM, 0.30 μM, 0.10 μM, 0.03 μM and 0.01 μM)/DMSO dilution followed by 20 μL ethanol-BSA solution were added to a final concentrations of 0.2% DMSO, 0.2% fatty-acid-free BSA, 0.25% ethanol. After 96 h incubation an MTT assay was performed.
Raw data generated by the instrument were normalized to % Controlmin values, which were calculated as: % Controlmin=100*(x−mLC)/(mHC−mLC)
where mLC and mHC were the means of the low control wells and high control wells on the plate, after manual exclusion of outliers. A plot of Controlmin versus test compound concentration was fitted to a 4-parameter logistic curve using a non-linear least squares regression method.

Assay [1] deals with LNCaP_Vancouver prostate cells. Description: In Vitro LNCaP Vancouver Prostate Cell Proliferation Assay in Lipid Reduced Medium. The conditions noted are these: Prostate cell; 10% lipid reduced serum, 96 h, ATP-glow luminescence; read-out: pIC50 LNCaP_Vancouver prostate cell (converted). On the procedure: LNCaP_Vancouver prostate cells were obtained from the Vancouver Prostate Cancer Centre.
The next day 10 μl of test compound/DMSO diluted in medium was added (3E-5M, 1E-5M, 3E-6M,1E-6M, 3E-7M, 1E-7M, 3E-8M, 1E-8M final concentration). Compounds were tested in duplicate. After 96 h incubation at 37° C., 5% CO2 25 μl ATP-glow mix was added. The plate was incubated for 30 min at 37° C. and luminescence was measured with the Envision.
(§1) Analysis: Determination of pIC50 Values
(§2) pIC50 values were calculated as follows. Raw data generated by the instruments were normalized to % Controlmin values, which were calculated as: % Controlmin=100*(x−mLC)/(mHC−mLC),
(§3) where mLC and mHC are the means of the low control wells and high control wells on the plate, after manual exclusion of outliers. The relation between the % Controlmin values and concentration was fitted to a 4-parameter logistic curve using a non-linear least squares regression method to determine the pIC50 value. Outlying data points were excluded manually to get a correct fit. The pIC50 corresponds to −log 10(IC50), if the IC50 is expressed in molar units (http://www.ncbi.nlm.nih.qovibooks/NBK91994). The IC50 parameter was always determined by non-linear regression, but one or more of the other parameters may have been held fixed on a relevant input value, such as 0 for the bottom values.

Assay [2] relates to PC-3M-Luc-C6 prostate cells. Description: In Vitro PC-3M-Luc-C6 Prostate Cell Proliferation Assay in Lipid Reduced Medium. The conditions noted are these: Prostate cell, read-out: pIC50 PC-3M-Luc-C6 prostate cell (converted); 10% lipid reduced serum, 96 h, ATP-glow luminescence. On the procedure:
PC-3M-Luc-C6 prostate cells were obtained from Xenogen Corporation. Cells were maintained in MEM supplemented with 10% Fetal Calf Serum (FCS, Hyclone), 2 mM glutamine, 1 mM sodium pyruvate, 1% BME vitamins (available from for example, Sigma Aldrich), 0.1 mM non Essential Amino Acid and 50 μg/ml Gentamicin. The cells were passaged twice a week.
The next day 10 μl test compound/DMSO diluted in medium was added (3E-5M, 1E-5M, 3E-6M,1E-6M, 3E-7M, 1E-7M, 3E-8M, 1E-8M final concentration). Compounds were tested in duplicate. After 96 h incubation at 37° C., 5% CO2 25 μl ATP-glow mix was added. The plate was incubated for 30 min at 37° C. and luminescence was measured with the Envision.
as §1, §2, §3

Where [3] appears, read: 25 μM palmitate added (control), read-out: pIC50 With Palmitate (converted).
Setting [4] is: no palmitate, read-out: pIC50 Without Palmitate (converted).

SMILES strings stand for the structures. Where two headings read alike, the source gives them in different places.

For `CC1(c2ccccc2)N=C(c2ccc(-c3ccc4occc4c3)cc2)N(C[C@@H]2CCN(C(=O)C3CC3)C2)C1=O` (mixture of isomers) [Compound 5, (4RS)-2-(4-(Benzofuran-5-yl)phenyl)-1-(((R)-1-(cyclopropanecarbonyl)pyrrolidin-3-yl)methyl)-4-methyl-4-phenyl-1H-imidazol-5(4H)-one], the IC50 was more than 10000 nM with A2780 ovarian cells (setting [3]), 2000 nM in the assay on A2780 ovarian cells (setting [4]), 4370 nM in assay [1] and approximately 1860 nM in assay [2].

Turning to `Cn1ncc2cc(-c3ccc(C4=NC(C)(c5ccccc5)C(=O)N4C[C@@H]4CCN(C(=O)C5CC5)C4)cc3)ccc21` (mixture of isomers) [Compound 6, (4RS)-1-(((R)-1-(cyclopropanecarbonyl)pyrrolidin-3-yl)methyl)-4-methyl-2-(4-(1-methyl-1H-indazol-5-yl)phenyl)-4-phenyl-1H-imidazol-5(4H)-one], the IC50 with A2780 ovarian cells (setting [3]) was more than 10000 nM; with A2780 ovarian cells (setting [4]), 363 nM; in assay [1], 1820 nM; in assay [2], 501 nM.

`CC1(c2ccccc2)N=C(c2ccc(-c3ccc4[nH]ccc4c3)cc2)N(C[C@@H]2CCN(C(=O)C3CC3)C2)C1=O` (mixture of isomers) [Compound 7, (4RS)-2-(4-(1H-Indol-5-yl)phenyl)-1-(((R)-1-(cyclopropanecarbonyl)pyrrolidin-3-yl)methyl)-4-methyl-4-phenyl-1H-imidazol-5(4H)-one]: the IC50 in the assay with A2780 ovarian cells (setting [3]) was more than 10000 nM; with A2780 ovarian cells (setting [4]), 132 nM; in assay [1], 234 nM; in assay [2], 74.1 nM.

For `COCC1(C)N=C(c2ccc(-c3ccc4occc4c3)cc2)N(C[C@@H]2CCN(C(=O)C3CC3)C2)C1=O` (mixture of isomers) [Compound 8, (4RS)-2-(4-(Benzofuran-5-yl)phenyl)-1-(((R)-1-(cyclopropanecarbonyl)pyrrolidin-3-yl)methyl)-4-(methoxymethyl)-4-methyl-1H-imidazol-5(4H)-one], the IC50 in the assay with A2780 ovarian cells (setting [3]) was more than 10000 nM; in the assay with A2780 ovarian cells (setting [4]), 1150 nM; in assay [1], 2570 nM; in assay [2], 1290 nM.

As for `CC1(C2CC2)N=C(c2ccc(-c3ccc4occc4c3)cc2)N(C[C@@H]2CCN(C(=O)C3CC3)C2)C1=O` (mixture of isomers) [Compound 9, (4RS)-2-(4-(Benzofuran-5-yl)phenyl)-1-(((R)-1-(cyclopropanecarbonyl)pyrrolidin-3-yl)methyl)-4-cyclopropyl-4-methyl-1H-imidazol-5(4H)-one], the IC50 was more than 10000 nM in the assay on A2780 ovarian cells (setting [3]), approximately 1910 nM in the assay with A2780 ovarian cells (setting [4]), 2040 nM in assay [1] and 1620 nM in assay [2].

On to `COCC1(C)N=C(c2ccc(-c3ccc4c(cnn4C)c3)cc2)N(C[C@@H]2CCN(C(=O)C3CC3)C2)C1=O` (mixture of isomers) [Compound 10, (4RS)-1-(((R)-1-(cyclopropanecarbonyl)pyrrolidin-3-yl)methyl)-4-(methoxymethyl)-4-methyl-2-(4-(1-methyl-1H-indazol-5-yl)phenyl)-1H-imidazol-5(4H)-one], for which the IC50 in the assay with A2780 ovarian cells (setting [3]) was more than 10000 nM; in the assay on A2780 ovarian cells (setting [4]) it was approximately 741 nM; in assay [1], 3630 nM; in assay [2], 933 nM.

Take `CC1(C)N=C(c2ccc(-c3nc4ccccc4o3)cc2)N(C[C@@H]2CCN(C(=O)C3CC3)C2)C1=O` [Compound 11, (R)-2-(4-(benzo[d]oxazol-2-yl)phenyl)-1-((1-(cyclopropanecarbonyl)pyrrolidin-3-yl)methyl)-4,4-dimethyl-1H-imidazol-5(4H)-one]: the IC50 is more than 10000 nM with A2780 ovarian cells (setting [3]), 3720 nM in the assay on A2780 ovarian cells (setting [4]), approximately 10000 nM in assay [1] and approximately 2000 nM in assay [2].

As to `CC1(C)N=C(c2ccc(-c3ccc(-c4ccncc4)cc3)cc2)N(C[C@@H]2CCN(C(=O)C3CC3)C2)C1=O` [Compound 15, (R)-1-((1-(cyclopropanecarbonyl)pyrrolidin-3-1)methyl)-4,4-dimethyl-2-(4′-(pyridin-4-yl)-[1,1′-biphenyl]-4-yl)-1H-imidazol-5(4H)-one], the IC50 was more than 10000 nM in the assay on A2780 ovarian cells (setting [3]), 178 nM in the assay with A2780 ovarian cells (setting [4]), 759 nM in assay [1] and 158 nM in assay [2].

`Cn1cc(-c2ccc(-c3ccc(C4=NC(C)(C)C(=O)N4C[C@@H]4CCN(C(=O)C5CC5)C4)cc3)cc2)cn1` [Compound 16, (R)-1-((1-(cyclopropanecarbonyl)pyrrolidin-3-yl)methyl)-4,4-dimethyl-2-(4′-(1-methyl-1H-pyrazol-4-yl)-[1,1′-biphenyl]-4-yl)-1H-imidazol-5(4H)-one]: the IC50 in the assay on A2780 ovarian cells (setting [3]) is more than 10000 nM; in the assay with A2780 ovarian cells (setting [4]), 186 nM; in assay [1], 331 nM; in assay [2], 174 nM.

For `Cn1cc(-c2ccc(-c3ccc(C4=NC(C)(C)C(=O)N4CC4CN(C(=O)C5CC5)C4)cc3)cc2)cn1` [Compound 17, 1-((1-(cyclopropanecarbonyl)azetidin-3-yl)methyl)-4,4-dimethyl-2-(4′-(1-methyl-1H-pyrazol-4-yl)-[1,1′-biphenyl]-4-yl)-1H-imidazol-5(4H)-one], the IC50 in the assay with A2780 ovarian cells (setting [3]) was more than 10000 nM; with A2780 ovarian cells (setting [4]), 2510 nM; in assay [1] it was 8910 nM; in assay [2], 1820 nM.

In the case of `CC1(C)N=C(c2ccc(-c3ccc(-c4ccncc4)cc3)cc2F)N(CC2CN(C(=O)C3CC3)C2)C1=O` [Compound 22, 1-((1-(cyclopropanecarbonyl)azetidin-3-yl)methyl)-2-(3-fluoro-4′-(pyridin-4-yl)-[1,1′-biphenyl]-4-yl)-4,4-dimethyl-1H-imidazol-5(4H)-one], the IC50 with A2780 ovarian cells (setting [3]) is more than 10000 nM; in the assay on A2780 ovarian cells (setting [4]), approximately 269 nM; in assay [1], 813 nM; in assay [2] it was 224 nM.

With `CC1(C)N=C(c2ccc(-c3ccc4cc(F)ccc4c3)cc2F)N(CC2CN(C(=O)C3CC3)C2)C1=O` [Compound 54, 1-((1-(cyclopropanecarbonyl)azetidin-3-yl)methyl)-2-(2-fluoro-4-(6-fluoronaphthalen-2-yl)phenyl)-4,4-dimethyl-1H-imidazol-5(4H)-one], the IC50 in assay [1] was 407 nM; in assay [2], 129 nM.

With `CC1(C)N=C(c2ccc(-c3ccc4cccc(F)c4c3)cc2F)N(CC2CN(C(=O)C3CC3)C2)C1=O` [Compound 55, 1-((1-(cyclopropanecarbonyl)azetidin-3-yl)methyl)-2-(2-fluoro-4-(8-fluoronaphthalen-2-yl)phenyl)-4,4-dimethyl-1H-imidazol-5(4H)-one], the IC50 in assay [1] is 120 nM; in assay [2], 43.7 nM.

Regarding `CC1(C)N=C(c2ccc(-c3ccc4cnccc4c3)cc2F)N(CC2CN(C(=O)C3CC3)C2)C1=O` [Compound 56, 1-((1-(cyclopropanecarbonyl)azetidin-3-yl)methyl)-2-(2-fluoro-4-(isoquinolin-6-yl)phenyl)-4,4-dimethyl-1H-imidazol-5(4H)-one], the results for the IC50 in assay [1] and in assay [2] were 339 nM and 63.1 nM, respectively.

In the case of `CC1(C)N=C(c2ccc(-c3c[nH]c4ccccc34)cc2F)N(CC2CN(C(=O)C3CC3)C2)C1=O` [Compound 62, 1-((1-(cyclopropanecarbonyl)azetidin-3-yl)methyl)-2-(2-fluoro-4-(1H-indol-3-yl)phenyl)-4,4-dimethyl-1H-imidazol-5(4H)-one], the IC50 in assay [1] is 776 nM; in assay [2] it was 1200 nM.

The values are drawn from patent US10413545B2, “Imidazolin-5-one derivative useful as FASN inhibitors for the treatment of cancer” (Janssen Pharmaceutica NV, priority 2013, dated 2019).
